Test results from patent US20060099267A1, “High-dosage extended-release formulation of gepirone” (Fabre-Kramer Pharmaceuticals, Inc., priority 2004, published 2006).
Where a name gives a salt, the structure may show the parent alone.

Columns and labels:
[1] = test system: presynaptic α-2-adrenoceptor; conditions: cited from earlier work
[2] = in vivo; cited from earlier work
[3] = test system: post-synaptic receptors in the hippocampus; conditions: cited from earlier work
[4] = biological target: T1, 5-HT1A receptors (Homo sapiens, UniProt P08908); conditions: cited from earlier work
T1 sequence (P08908 1-422): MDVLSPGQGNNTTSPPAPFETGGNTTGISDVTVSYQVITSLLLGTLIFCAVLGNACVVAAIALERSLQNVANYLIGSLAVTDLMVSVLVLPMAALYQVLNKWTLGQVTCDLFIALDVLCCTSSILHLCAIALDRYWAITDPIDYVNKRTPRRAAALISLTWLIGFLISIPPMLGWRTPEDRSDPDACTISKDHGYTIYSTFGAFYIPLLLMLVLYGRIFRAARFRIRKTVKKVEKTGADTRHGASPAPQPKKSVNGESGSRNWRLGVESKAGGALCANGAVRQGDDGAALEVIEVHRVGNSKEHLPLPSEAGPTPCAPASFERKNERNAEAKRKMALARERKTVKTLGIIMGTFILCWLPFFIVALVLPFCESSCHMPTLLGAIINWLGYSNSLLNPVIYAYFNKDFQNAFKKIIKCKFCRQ

[5] = immediate-release formulations; cited from earlier work
[6] = Open label, randomized, four-way crossover, single dose bioequivalence and pharmacokinetic study of extended-release gepirone tablets; format: in vivo, human; conditions: 40-80 mg dose range
Text: Heretofore, efficacy and pharmacokinetic data for extended release gepirone tablets have been primarily obtained by administering one or multiple 20-mg extended-release gepirone tablets (similar to that described in the Preparation Example above).
To this end, an open label, randomized, four-way crossover, single dose study design was used with a washout phase of one week between different treatments. During each study period, the subjects were hospitalized from the afternoon before until 36 hours after gepirone administration. Following discharge, blood sample collections were taken at 48, 60, and 72 hours post-administration. […]
To determine the bioequivalence of one 80-mg extended-release gepirone tablet versus four 20-mg extended-release gepirone tablets the following pharmacokinetic parameter were calculated for each subject and treatment: • tmax (TMAX) • The actual time of occurrence of Cmax. • Cmax (CMAX) • The measured maximum concentration in plasma after single dosing. • dn-Cmax (DCMAX) • The dose-normalized Cmax was calculated as Cmax/Dose. • λZ (LZ) and t1/2 (THALF) • The slope (β) of the terminal log-linear phase of the concentration-versus-time curve was determined by linear regression. […] The terminal elimination rate constant (λZ) was defined as −β from which the elimination half-life (t1/2) was calculated as […]. […]

[7] = immediate-release formulations; cited from earlier work; remark: listed apart in the source

dose proportionality [6]	Compound	activity at presynaptic α-2-adrenoceptor [1]	antidepressant-like characteristics in pre-clinical tests [2]	agonism at post-synaptic receptors in the hippocampus [3]	affinity for 5-HT1A receptors [4]	T50 (time until 50% of the drug has been released under controlled in vitro conditions) [5]	time to maximum drug concentration of gepirone in the bloodstream (Tmax) [7]
	c1cnc(N2CCNCC2)nc1 [1-PP, 1-(2-pyrimidinyl)piperazine]	antagonist	did not exhibit antidepressant-like characteristics				
	CC1(C)CC(=O)N(CCCCN2CCN(c3ncccn3)CC2)C(=O)C1O (centres unmarked) [3′-OH gepirone]			full agonism	significant affinity		
dose proportionality	CC1(C)CC(=O)N(CCCCN2CCN(c3ncccn3)CC2)C(=O)C1 [gepirone, 4,4-dimethyl-1-[4-[4-(2-pyrimidinyl)-1-piperazinyl]-butyl]-2,6-piperidinedione hydrochloride]			partial agonist		2.5 to 3 h	about 1 hour
